Laboratory results published in ChEMBL document CHEMBL1201862, “PubChem BioAssay data set” (2004).
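A five-concentration, 48-hour dose response in 96-well plates underlies each endpoint, interpolated linearly between surrounding concentrations. GI50 marks 50% less growth.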 Calls of active or inactive are those of the source. Cut-off read from the data, not from the text of the source: active = GI50 up to about 1.1 µM and inactive = higher.

Key:
Assay in all cases: inhibition of tumour cell growth, NCI panel, 48 h
786-0 = tested on: 786-0
K562 = tested on: K562
CCRF-CEM = tested on: CCRF-CEM
OVCAR-5 = tested on: OVCAR-5
BT-549 = tested on: BT-549
MOLT-4 = tested on: MOLT-4
SK-MEL-2 = tested on: SK-MEL-2
SR = tested on: SR
HCT-15 = tested on: HCT-15
IGROV-1 = tested on: IGROV-1
OVCAR-3 = tested on: OVCAR-3
RPMI-8226 = tested on: RPMI-8226
Malme-3M = tested on: Malme-3M
UO-31 = tested on: UO-31
MDA-N = tested on: MDA-N
A549 = tested on: A549
NCI-H522 = tested on: NCI-H522
OVCAR-8 = tested on: OVCAR-8
SF-295 = tested on: SF-295
SK-MEL-5 = tested on: SK-MEL-5

Question: `COc1cccc2ccc3c(c12)C(=O)OC31CCc2c(C)cccc21` (stereo not given) was tested. Which GI50 (786-0) did it give?
Answer: 28.8 µM (inactive)

Question: What about the GI50 (K562) of the same compound?
Answer: 7.91 µM (inactive)

Question: What about the GI50 (CCRF-CEM) of the same compound?
Answer: 24 µM (inactive)

Question: And the GI50 (OVCAR-5)?
Answer: 26.5 µM (inactive)

Question: And the GI50 (BT-549)?
Answer: > 100 µM (inactive)

Question: And the GI50 (MOLT-4)?
Answer: 13.2 µM (inactive)

Question: And the GI50 (SK-MEL-2)?
Answer: 32.1 µM (inactive)

Question: What about the GI50 (SR) of the same compound?
Answer: 7.16 µM (inactive)

Question: What about the GI50 (HCT-15) of the same compound?
Answer: 10.3 µM

Question: What about the GI50 (IGROV-1) of the same compound?
Answer: 34.5 µM (inactive)

Question: What about the GI50 (OVCAR-3) of the same compound?
Answer: 10.3 µM (inactive)

Question: And the GI50 (RPMI-8226)?
Answer: 6.87 µM (inactive)

Question: And the GI50 (Malme-3M)?
Answer: 19.1 µM (inactive)

Question: And the GI50 (UO-31)?
Answer: 9.16 µM (inactive)

Question: And the GI50 (MDA-N)?
Answer: 7.55 µM (inactive)

Question: What about the GI50 (A549) of the same compound?
Answer: 17.1 µM (inactive)

Question: What about the GI50 (NCI-H522) of the same compound?
Answer: 21.4 µM (inactive)

Question: And the GI50 (OVCAR-8)?
Answer: 15.8 µM (inactive)

Question: And the GI50 (SF-295)?
Answer: 9.95 µM (inactive)

Question: And the GI50 (SK-MEL-5)?
Answer: 10.2 µM (inactive)

Question: For `O=C1c2ccccc2CCC1C(O)(C(F)(F)F)C(F)(F)F` (stereo not given), which GI50 (786-0) is on record?
Answer: > 100 µM (inactive)

Question: And the GI50 (K562)?
Answer: > 100 µM (inactive)

Question: And the GI50 (CCRF-CEM)?
Answer: > 100 µM (inactive)

Question: What about the GI50 (OVCAR-5) of the same compound?
Answer: > 100 µM (inactive)

Question: What about the GI50 (BT-549) of the same compound?
Answer: > 100 µM (inactive)

Question: And the GI50 (MOLT-4)?
Answer: 44.6 µM (inactive)

Question: And the GI50 (SK-MEL-2)?
Answer: 27.5 µM (inactive)

Question: What about the GI50 (SR) of the same compound?
Answer: > 100 µM (inactive)

Question: And the GI50 (HCT-15)?
Answer: 63 µM

Question: And the GI50 (IGROV-1)?
Answer: > 100 µM (inactive)

Question: And the GI50 (OVCAR-3)?
Answer: > 100 µM (inactive)

Question: What about the GI50 (RPMI-8226) of the same compound?
Answer: > 100 µM (inactive)

Question: And the GI50 (Malme-3M)?
Answer: > 100 µM (inactive)

Question: And the GI50 (UO-31)?
Answer: > 100 µM (inactive)

Question: What about the GI50 (MDA-N) of the same compound?
Answer: > 100 µM (inactive)

Question: What about the GI50 (A549) of the same compound?
Answer: > 100 µM (inactive)

Question: And the GI50 (NCI-H522)?
Answer: > 100 µM (inactive)

Question: And the GI50 (OVCAR-8)?
Answer: > 100 µM (inactive)

Question: What about the GI50 (SF-295) of the same compound?
Answer: > 100 µM (inactive)

Question: What about the GI50 (SK-MEL-5) of the same compound?
Answer: 49.2 µM (inactive)

Question: Which results are given for `Nc1ccc(I)cn1`?
Answer: GI50 (786-0): > 100 µM (inactive); GI50 (K562): > 100 µM (inactive); GI50 (CCRF-CEM): > 100 µM (inactive); GI50 (OVCAR-5): > 100 µM (inactive); GI50 (BT-549): > 100 µM (inactive); GI50 (MOLT-4): > 100 µM (inactive); GI50 (SK-MEL-2): > 100 µM (inactive); GI50 (SR): > 100 µM (inactive); GI50 (HCT-15): > 100 µM; GI50 (IGROV-1): > 100 µM (inactive); GI50 (OVCAR-3): > 100 µM (inactive); GI50 (RPMI-8226): > 100 µM (inactive); GI50 (Malme-3M): > 100 µM (inactive); GI50 (UO-31): > 100 µM (inactive); GI50 (MDA-N): > 100 µM (inactive); GI50 (A549): > 100 µM (inactive); GI50 (NCI-H522): > 100 µM (inactive); GI50 (OVCAR-8): > 100 µM (inactive); GI50 (SF-295): > 100 µM (inactive); GI50 (SK-MEL-5): > 100 µM (inactive)

Question: For `CCCCCc1nnc(NS(=O)(=O)c2ccc(NC(=O)OCC(C)C)cc2)s1`, which GI50 (786-0) is on record?
Answer: 40.8 µM (inactive)

Question: What about the GI50 (K562) of the same compound?
Answer: 25.2 µM (inactive)

Question: And the GI50 (CCRF-CEM)?
Answer: 26.4 µM (inactive)

Question: And the GI50 (OVCAR-5)?
Answer: 54.7 µM (inactive)

Question: What about the GI50 (BT-549) of the same compound?
Answer: 32.1 µM (inactive)

Question: What about the GI50 (MOLT-4) of the same compound?
Answer: 20.1 µM (inactive)

Question: And the GI50 (SK-MEL-2)?
Answer: 19.1 µM (inactive)

Question: And the GI50 (SR)?
Answer: 16.4 µM (inactive)

Question: And the GI50 (HCT-15)?
Answer: 36 µM

Question: And the GI50 (IGROV-1)?
Answer: 25.7 µM (inactive)

Question: What about the GI50 (OVCAR-3) of the same compound?
Answer: 30.3 µM (inactive)

Question: And the GI50 (RPMI-8226)?
Answer: 19.3 µM (inactive)

Question: What about the GI50 (Malme-3M) of the same compound?
Answer: 34.9 µM (inactive)

Question: And the GI50 (UO-31)?
Answer: 33.4 µM (inactive)

Question: And the GI50 (MDA-N)?
Answer: 32.3 µM (inactive)

Question: And the GI50 (A549)?
Answer: 34.2 µM (inactive)

Question: And the GI50 (NCI-H522)?
Answer: 24.5 µM (inactive)

Question: And the GI50 (OVCAR-8)?
Answer: 32.2 µM (inactive)

Question: What about the GI50 (SF-295) of the same compound?
Answer: 37.5 µM (inactive)

Question: What about the GI50 (SK-MEL-5) of the same compound?
Answer: 27.1 µM (inactive)
